Columns and labels:
RA synovial fibroblasts = assay: Cytokine synthesis in RA synovial fibroblasts stimulated with tenascin-C, FBG or LPS; type: cell-based, human
Excerpt: RA membrane cells (representing a mixed population of all synovial cell types) were isolated from synovial membranes obtained from patients undergoing joint replacement surgery as previously described (Brennan (1989)). RA synovial fibroblasts were isolated from the mixed population of RA membrane cells as previously described (Brennan (1989)). The study was approved by the local Trust ethics committee (Riverside NHS Research Committee), and waste tissue (synovium after joint replacement surgery) was obtained only after receiving signed informed consent from the patient and anonymyzing the tissue to protect patient identity.
(§1) Immediately after isolation, RA membrane cells and macrophages were cultured at 1×10^5 cells/well in RPMI 1640 containing 10% (v/v) FBS and 100 U/ml (Units/ml) penicillin/streptomycin in 96-well tissue culture plates for 24 hours before stimulation. Synovial fibroblasts (used only at either passage number 2 or 3) were cultured at 1×10^4 cells/well in DMEM containing 10% (v/v) FBS and 100 U/ml penicillin/streptomycin in 96-well tissue culture plates for 24 hours before stimulation.
(§2) Cells were incubated for 24 hours at 37° C. with the indicated doses of tenascin-C and recombinant tenascin-C fragments (1.0 μM-1.0 nM). Cells were also stimulated where indicated with LPS (1 ng/ml for human macrophages, 10 ng/ml for human fibroblasts, RA membrane cells and HEKs, 100 ng/ml for MEFS and BMDMs and 10 ng/ml for HEKS), PAM3 (10 ng/ml for human macrophages, human fibroblasts, and HEKs, 100 ng/ml for MEFs and BMDMs), murine IL-1 (5 ng/ml for MEFS) and murine TNF-α (100 ng/ml for MEFS). Unless specifically stated otherwise rough LPS was used for in vitro studies.
(§3) Supernatants were subsequently examined for the presence of the cytokines TNF-α, IL-6, and IL-8 by enzyme-linked immunosorbent assay (ELISA) according to the manufacturer's instructions. Absorbance was read on a spectrophotometric ELISA plate reader (Labsystems Multiscan Biochromic, Vantaa, Finland) and analyzed using the Ascent software program (Thermo Labsystems, Altrincham, UK).

[1] = tested on: primary human macrophages; assay: Cytokine synthesis in primary human macrophages stimulated with tenascin-C or its domains; type: cell-based
Procedure: Human monocytes were isolated from peripheral blood (London Blood Bank) and macrophages were derived from monocytes after differentiation for 4 days with 100 ng/ml of M-CSF as previously described (Foxwell (1998)).
as §1, §2
(§4) Where stated, cells were pre-incubated with 10 μg/ml anti-CD14 antibody, 10 μg/ml IL1 receptor antagonist, 10 μg/ml anti-TLR2 antibody, 25 μg/ml anti-TLR4 antibody, 10 or 25 μg/ml isotype control antibody, 25 μg/ml polymyxin B, or 1 μg/ml msbB LPS, for 30 minutes at 37° C. before stimulation. Where stated, recombinant tenascin-C and FBG, and LPS were boiled for 15 minutes before addition to cells
as §3

serum from RA patients = assay: Western blot of citrullinated tenascin-C probed with serum from RA patients or healthy controls; type: binding, human; details: sera from RA patients or normal healthy controls, not shown
Procedure: SDS PAGE of Citrullinated Proteins 33.33 ul of citrullination reaction (cit-TNC alone or cit-TNC combined with cit-FBG) was loaded into NuPAGE® Novex 4-12% Bis-tris gel using a 1.0 mm 2D single lane well.
After electrophoresis proteins were transferred to nitrocellulose and the membrane blocked and then cut into strips (up to 8 strips ˜0.7 cm wide). Strips were incubated with serum from RA patients or normal healthy individuals diluted 1:100 in 5% milk TBS-tween. Strips were incubated in 15 ml falcon tubes on rollers 1 h room temperature, then washed 3 ×5 min, 1×15 min in tubes with TBS-Tween. Strips were then incubated with secondary mouse anti-human Ig 1:5000 1 h in room temperature, then washed 3×5 min, 1×15 min in the dish with TBS-tween. Strips were finally incubated with ECL reagents and exposed to film.

IL-1 = assay: Addition of IL-1 receptor antagonist before FBG stimulation; type: cell-based; details: 10 μg/ml IL1 receptor antagonist, data not shown
Procedure: as §4, §3

Substance | IL-6 synthesis (RA synovial fibroblasts; RA synovial fibroblasts, 24 h) | TNF-α synthesis (RA synovial fibroblasts; fibroblasts, data not shown) | heat and polymyxin B sensitivity of cytokine stimulation ([1]; boiled 15 min, 25 μg/ml polymyxin B pre-incubation) | production of TNF-α, IL-6 and IL-8 ([1]; human macrophages, 24 h, 1.0 μM-1.0 nM) | reactivity with sera in blots (serum from RA patients) | FBG induction of cytokines (IL-1)
tenascin-C: recombinant full-length human tenascin-C purified from HEK293 conditioned medium | only induced IL-6 synthesis | Neither LPS nor tenascin-C induced TNF-α synthesis | heat sensitive and unaffected by the LPS inhibitor, polymyxin B | dose dependently stimulated | No reactivity | –
IL-1 receptor antagonist: IL-1 receptor antagonist from R&D Systems | – | – | – | – | – | did not inhibit

Reference: patent publication US20170009228A1, “BIOLOGICAL MATERIALS AND THERAPEUTIC USES THEREOF” (IMPERIAL INNOVATIONS LIMITED, priority 2014, published 2017)
